Laboratory results reported in patent US6849596B1, “Regulatory/unfolding peptides of ezrin” (priority 1999, dated 2005).
Entries after “also recorded” stand apart in the source; their conditions may differ.

What was measured:
[1] = tested on: human Peripheral Blood Mononuclear Cells; test: In vitro activation of human PBMC, tritiated thymidine incorporation; type: cell-based; conditions: for incorporation of 3H thymidine: three days, Control 370
Method: Peripheral Blood Mononuclear Cells (PBMC) were separated from the peripheral blood of a […] donor using the standard method of fractionation in a ficoll gradient. The PBMC were suspended in culture medium containing RPMI1640 medium plus 10% fetal calf serum, 1 mM L-glutamin and antibiotics (BM). The cell suspension was placed in wells of a 96 hole microwell plate for cell cultivation, (100 microliters of suspension containing 100,000 cells per well). […] The negative control well contained BM but no peptide. The plate was incubated at 37° C. for three days then radioactive ^3H thymidine was added to a final concentration of 1 microcurie per ml. The incorporation of ^3H thymidine into the DNA of the cells was measured using a betacounter using standard procedures. The experiment was repeated twice and the results expressed as an average of the two experiments in radioactive counts per minute.

[2] = tested on: transplanted sarcoma of the uterus SM-322; test: Transplanted mouse sarcoma SM-322 model; type: in vivo, CBA mice; conditions: control 12-16
activated macrophages = test: Induction of activated macrophages in mice (peritoneal exsudate); type: in vivo
Method: Groups of three mice (CDAxC57B1)F1 weighing 22-24 g were injected abdominally with each peptide solution of 1.0 microgram of peptide dissolved in 0.5 ml of physiological saline. After 24 hours the animals were killed using neck vertebrae dislocation and 5 ml of Hanks solution was injected into the abdomen. The abdomen was massaged for 30 seconds and then the peritoneal liquid was collected. The collected liquid was filtered using a nylon filter into siliconised tubes containing 1.5 mg/ml EDTA. The number of nucleus containing cells in […] of filtrate were then assessed under microscopic examination using a Nihon hemocytometer. The cells were pelleted by centrifugation for 5 minutes at 800 g, the pellet was resuspended in fetal calf serum, the cell suspension was dropped on to a glass microscope slide and dried then fixed in methanol and stained with Romanovski's colouring agent. Morphological analysis of the cells of the peritoneal exsudate were performed using an Opton optical microscope at 1600 magnifications. The number of lymphocytes, resting macrophages, activated macrophages, granulocytes and other cell types were assessed.

[3] = tested on: transplanted sarcoma of the uterus SM-322; test: Transplanted mouse sarcoma SM-322 model; type: in vivo, CBA mice; conditions: for Percent decrease in tumour volume relative to control: SM-322
Text: Anticancer Activity of Hepreceptor Peptides on the Growth of Transplanted Sarcoma of the Uterus SM-322 and on Cancer of the Uterine Cervix CUS-5 Performed in CBA Mice Using Rupe312 and Rupe414 as Examples Transplanted mouse sarcoma SM-322 model (endothelial tumour). Primary tumours of the uterus were induced in female mice using 1.2 dimethylhydrazine. A few primary tumours were transplanted into syngeneic mice. The first visible nodules started to appear at the point of transplation after 4 days. The life expectancy of the mice with transplanted tumours was 22-24 days. […] The tumours were introduced as a 0.5 ml of tumour suspension (1 g tumour per 10 ml of Igla medium) and ten mice used in each treatment group. […] The average percent decrease of tumour volume relative to the control group was recorded at three time points. The longevity of the mice in the treatment groups and control groups was compared and the histology of the tumours between control and treatment groups was compared.

[4] = tested on: HLA Class I on human White Blood Cells; test: Expression of MHC (HLA) Class I on human White Blood Cells; type: cell-based; conditions: 0.003 micrograms per ml
Text: A cell specific effect of this activation was an increase in the population of monocytes expressing MHC Class I and a decrease in the population of CD8 lymphocytes expressing MHC Class I.

[5] = tested on: transplanted cervical cancer CUC-5; test: Transplanted mouse cervical cancer model CUC-5; type: in vivo, CBA mice; conditions: for Percent decrease in tumour volume relative to control / Days of life expectancy: CUC-5; for Days of life expectancy: control 47-76
Text: Anticancer Activity of Hepreceptor Peptides on the Growth of Transplanted Sarcoma of the Uterus SM-322 and on Cancer of the Uterine Cervix CUS-5 Performed in CBA Mice Using Rupe312 and Rupe414 as Examples
Transplanted mouse cervical cancer model CUC-5 (epithelial tumour)
Primary tumours were induced in female mice using methylcholantrene. A few primary turnouts were then auto-transplanted into the uterine cervix. The life expectancy of mice with transplanted tumours was 43 days.
CBA female mice weighed 21.4=/−1.2 g. and were 2-3 months old. The tumours were introduced as a 0.5 ml of tumour suspension (1 g tumour per 10 ml of Igla medium) and ten mice used in each treatment group.
Lyophylised peptide were dissolved in sterile physiological saline immediately before use in three concentrations. 0.5 ml of solution was injected twice weekly into the peritoneum of the mice for the duration of the experiment. Three different concentrations of peptide were used leading to three final doses per injection per mouse of 10, 1.0 and 0.1 micrograms.
The average percent decrease of tumour volume relative to the control group was recorded at three time points. The longevity of the mice in the treatment groups and control groups was compared and the histology of the tumours between control and treatment groups was compared.

[6] = 0.1 Microg/mouse IP twice weekly
[7] = 10 Microg/mouse IP twice weekly
[8] = 0.1 Microg/mouse IP twice weekly, Day 8
[9] = 0.1 Microg/mouse IP twice weekly, Day 12
[10] = 1 Microg/mouse IP twice weekly, Day 8
[11] = 1 Microg/mouse IP twice weekly, Day 12
[12] = 10 Microg/mouse IP twice weekly, Day 8
[13] = 10 Microg/mouse IP twice weekly, Day 12

## KRRETVEREKE (Hepreceptor peptide) [Rupe414]
[1]; PBMC activation, thymidine incorporation
  activity relative to HEP1: significantly more active than HEP1; also recorded: ten fold higher activity than HEP1
[1]; PBMC proliferation
  concentration of peak activity: around 3 nanograms/ml
[1]; Peptide 0.0001 micro g/ml
  incorporation of 3H thymidine: 493 radioactive counts per minute
[1]; Peptide 0.0003 micro g/ml
  incorporation of 3H thymidine: 580 radioactive counts per minute
[1]; Peptide 0.001 micro g/ml
  incorporation of 3H thymidine: 684 radioactive counts per minute
[1]; Peptide 0.003 micro g/ml
  incorporation of 3H thymidine: 2087 radioactive counts per minute
[1]; Peptide 0.01 micro g/ml
  incorporation of 3H thymidine: 650 radioactive counts per minute
[1]; Peptide 0.03 micro g/ml
  incorporation of 3H thymidine: 596 radioactive counts per minute
[1]; Peptide 0.1 micro g/ml
  incorporation of 3H thymidine: 485 radioactive counts per minute
[1]; Peptide 0.3 micro g/ml
  incorporation of 3H thymidine: 492 radioactive counts per minute
[1]; Peptide 1 micro g/ml
  incorporation of 3H thymidine: 449 radioactive counts per minute
[1]; Peptide 3 micro g/ml
  incorporation of 3H thymidine: 437 radioactive counts per minute
[1]; Peptide 10 micro g/ml
  incorporation of 3H thymidine: 394 radioactive counts per minute
[2]; [6]
  Days of life expectancy: 12 to 19 days
[2]; 1 Microg/mouse IP twice weekly
  Days of life expectancy: 12 to 20 days
[2]; [7]
  Days of life expectancy: 13 to 20 days
Activated macrophages; 1.0 microgram peptide/mouse
  activity in increasing activated macrophages relative to HEP1: significantly more active than HEP1
Activated macrophages; 1.0 microgram peptide/mouse injected abdominally, after 24 hours, saline 1.9
  Activated macrophages as a percent of total number of cells: 8.5%
[3]; [8]
  Percent decrease in tumour volume relative to control: 68%
[3]; [9]
  Percent decrease in tumour volume relative to control: 39%
[3]; 0.1 Microg/mouse IP twice weekly, Day 15
  Percent decrease in tumour volume relative to control: 22%
[3]; [10]
  Percent decrease in tumour volume relative to control: 68%
[3]; [11]
  Percent decrease in tumour volume relative to control: 28%
[3]; 1 Microg/mouse IP twice weekly, Day 15
  Percent decrease in tumour volume relative to control: 43%
[3]; [12]
  Percent decrease in tumour volume relative to control: 65%
[3]; [13]
  Percent decrease in tumour volume relative to control: 43%
[3]; 10 Microg/mouse IP twice weekly, Day 15
  Percent decrease in tumour volume relative to control: 43%
[3]; both models (SM-322 and CUC-5)
  histology of the tumours: non bleeding ulcerous destruction of the centre of tumours
[4]; 24 hours
  relative activity in lowering intensity of HLA expression on WBC: more active than HEP1
[4]; B and NK cells, 24 hours
  Density of cell surface expression of HLA Class I, rebased to 100 for control: 77
  Percentage of cell population expressing HLA Class I, rebased to 100 for control: 101
[4]; CD4 lymphocytes, 24 hours
  Density of cell surface expression of HLA Class I, rebased to 100 for control: 77
  Percentage of cell population expressing HLA Class I, rebased to 100 for control: 105
[4]; CD8 lymphocytes, 24 hours
  Density of cell surface expression of HLA Class I, rebased to 100 for control: 76
  Percentage of cell population expressing HLA Class I, rebased to 100 for control: 89
[4]; Granulocytes, 24 hours
  Density of cell surface expression of HLA Class I, rebased to 100 for control: 85
  Percentage of cell population expressing HLA Class I, rebased to 100 for control: 98
[4]; Monocytes/Macrophages, 24 hours
  Percentage of cell population expressing HLA Class I, rebased to 100 for control: 109
[4]; Monocytes/Macrophages, 24 hours at 37° C.
  Density of cell surface expression of HLA Class I, rebased to 100 for control: 83
[5]; [8]
  Percent decrease in tumour volume relative to control: 50%
[5]; [9]
  Percent decrease in tumour volume relative to control: 18%
[5]; 0.1 Microg/mouse IP twice weekly, Day 19
  Percent decrease in tumour volume relative to control: 57%
[5]; [6]
  Days of life expectancy: 47 to 76 days
[5]; [10]
  Percent decrease in tumour volume relative to control: 50%
[5]; [11]
  Percent decrease in tumour volume relative to control: 16%
[5]; 1 Microg/mouse IP twice weekly, Day 19
  Percent decrease in tumour volume relative to control: 43%
[5]; 1 Microg/mouse IP twice weekly
  Days of life expectancy: 36 to 76 days
[5]; [12]
  Percent decrease in tumour volume relative to control: 50%
[5]; [13]
  Percent decrease in tumour volume relative to control: 16%
[5]; 10 Microg/mouse IP twice weekly, Day 19
  Percent decrease in tumour volume relative to control: 48%
[5]; [7]
  Days of life expectancy: 36 to 76 days
[5]; slower growing transplanted cervical cancer
  change in life expectancy: no significant increase (or decrease) in life expectancy was detected
